{"source": "patent US20210371895A1", "about": "“BACTERIAL RESPONSE” (BioFire Diagnostics, LLC, priority 2018, published 2021)", "key": {"lasI": {"system": "lasI", "test": "Benchtop RT-PCR Cp of lasI transcript, strains S1/R1 with ciprofloxacin", "assay_type": "cell-based, P. aeruginosa", "conditions": "15 μg/mL Ciprofloxacin for 10 minutes, cDNA 1:100 dilution", "experimental": "(§1) P. aeruginosa, two strains: one that is resistant and the other susceptible. • S1=susceptible to Ciprofloxacin • R1=resistant to Ciprofloxacin\n(§2) In this example, each strain (S1 and R1) was grown to 0.5 OD600 (-1×10^8 CFU/mL) and each was treated with or without 15 μg/mL of Ciprofloxacin for 10 minutes (two strains, each +/− antibiotic, provides four test conditions). It is understood that the OD and antibiotic incubation time are illustrative only and that other concentrations and times may be used. cDNA was generated by extracting on Magnapure using TNA kit, following bacterial lysis protocol, quantifying using Qubit RNA HS Assay Kit (Q32852), genomic DNA removed and cDNA generated using Maxima H Minus cDNA Kit with dsDNAse (M1682).\nFor some of these genes, a similar ΔCp between susceptible and resistant strains was found both with and without the presence of antibiotics. Such genes are referred to as “generic antibiotic resistance genes” as they distinguish between susceptible and resistant strains even in the absence of antibiotics. Several of these generic antibiotic resistance genes are in the quorum sensing pathway or the iron uptake pathway, while the pathway for several others are unknown. These genes included LasI, RhlI, pqsH, pvdE, PepSY, speD, PA14_RS20905, and coA. […]"}, "lexA [1]": {"system": "lexA", "test": "Benchtop RT-PCR Cp of lexA transcript, strains S1/R1 with ciprofloxacin", "assay_type": "cell-based, P. aeruginosa", "conditions": "15 μg/mL Ciprofloxacin for 10 minutes, cDNA 1:100 dilution", "experimental": "as §1, §2\nFor other genes, significant ΔCp was found only in the presence of antibiotics. These “specific antibiotic resistance genes” include lexA, sulA, ptrB, and, PA14_RS07985, with ptrB showing up-regulation in the resistant strain. The amplification curves for lexA are shown in FIG. 5B, where the susceptible strain with antibiotic has a Cp about 2 cycles earlier than the other three conditions. For the other three conditions, the resistant strain with and without antibiotics had essentially the same Cp as the susceptible strain without antibiotics."}, "lexA [2]": {"system": "lexA", "test": "Pouch panel (+dsDNAse +RT) relative expression level of lexA after ciprofloxacin exposure", "assay_type": "cell-based, Pseudomonas aeruginosa", "conditions": "7.5 or 15 μg/mL ciprofloxacin, 10, 30 and 60 minutes, versus zero ciprofloxacin", "text": "In this illustrative example, a pouch similar to pouch 510 was developed to include a DNase treatment step by including DNAse, illustratively a dsDNAse from Pandalus borealis, freeze dried into the fitment, as well as a slight modification in the elution buffer that is freeze dried into injection channel 515e, although it is understood that this dsDNAse is illustrative only and that other DNAses can be used, as well as other DNA removal methods. For the DNAse step, subsequent to elution, the temperature is raised to a temperature suitable for the DNAse enzyme, illustratively 42° C., followed by reverse-transcription and first-stage multiplex PCR. In this example, the pouch contained 45 different assays of interest (including control genes such as rpoD), targets where mRNA is present in concentrations greater than genomic (“high copy targets”) such as PA14_RS28865, as well as a number of antibiotic resistance gene targets including recA (specific) and lasI (generic) that are present in concentrations lower than genomic. However, it is understood that this panel of assays is illustrative only, and any combination of assays may be used. In one illustrative embodiment, all assays are for RNA targets, illustratively mRNA targets, although other RNA targets may be suitable for detection and/or quantification using the methods provided herein. […]"}}, "data": [{"smiles": "O=C(O)c1cn(C2CC2)c2cc(N3CCNCC3)c(F)cc2c1=O", "note": "[Ciprofloxacin]", "values": [{"measurement": "Cp of lasI amplification curve", "setting": "lasI; Resistant strain +ABX", "value": 15.15}, {"measurement": "Cp of lasI amplification curve", "setting": "lasI; Susceptible strain +ABX", "value": 10.55}, {"measurement": "Cp of lexA amplification curve", "setting": "lexA [1]; Resistant strain +ABX", "value": 18.55}, {"measurement": "Cp of lexA amplification curve", "setting": "lexA [1]; Susceptible strain +ABX", "value": 16.36}, {"measurement": "relative expression of lexA (geometric mean normalized Cp)", "setting": "lexA [2]; resistant strain", "value": "did not change"}, {"measurement": "relative expression of lexA (geometric mean normalized Cp)", "setting": "lexA [2]; susceptible strain", "value": "clear time dependent induction"}]}]}
